Calls of active or inactive are those of the source. No cut-off for these calls is given here.
Assays:
Egl nine homolog 1 = Egl nine homolog 1 (Homo sapiens, UniProt Q9GZT9); experiment: Binding affinity to […] PHD2 (181 to 426 residues) (unknown origin) by fluorescence polarization assay
[1] = Metabolic stability in rat liver microsomes assessed as clearance at 1 uM preincubated for 5 mins followed by NADPH addition and measured upto 60 mins by LC-MS/MS analysis; assay type: ADME, Microsome; conditions: time < 65 min, read-out: CLH
[2] = target: Endothelial PAS domain-containing protein 1 (Homo sapiens) (UniProt Q99814); experiment: Induction of HIF-2alpha stabilization in human Hep3B cells at 20 to 50 uM by Western blotting analysis; assay type: cell-based; conditions: dose 20-50 µM
Mus musculus = experiment: Upregulation of reticulocytes in C57BL/6J mouse at 10 mg/kg, po administered once daily for 3 days; assay type: functional, organism-based; conditions: time 3.0 day
[3] = target: Hypoxia-inducible factor 1-alpha (Homo sapiens) (UniProt Q16665); experiment: Induction of HIF-1alpha stabilization in human Hep3B cells at 20 to 50 uM by Western blotting analysis; assay type: cell-based; conditions: dose 20-50 µM
Erythrocyte = experiment: Upregulation of reticulocytes in C57BL/6J mouse assessed as increase in RBC at 10 to 50 mg/kg, po administered once daily for 3 days; assay type: functional, organism-based; conditions: dose 10-50 mg/kg, time 3.0 day

Sequence of Egl nine homolog 1 (Q9GZT9 whole entry, the tested form may be a part): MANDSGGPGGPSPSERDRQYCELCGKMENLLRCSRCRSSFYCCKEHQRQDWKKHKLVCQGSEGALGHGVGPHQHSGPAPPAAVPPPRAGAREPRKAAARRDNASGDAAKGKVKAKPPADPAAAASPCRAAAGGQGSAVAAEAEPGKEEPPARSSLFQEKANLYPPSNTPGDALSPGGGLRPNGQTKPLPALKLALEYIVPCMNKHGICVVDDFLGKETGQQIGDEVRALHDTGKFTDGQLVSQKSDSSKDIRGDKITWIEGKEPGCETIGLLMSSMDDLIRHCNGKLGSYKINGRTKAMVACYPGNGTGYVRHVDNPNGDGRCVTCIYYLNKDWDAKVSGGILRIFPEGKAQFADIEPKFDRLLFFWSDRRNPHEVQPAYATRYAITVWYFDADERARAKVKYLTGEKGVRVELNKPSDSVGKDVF
Sequence of Endothelial PAS domain-containing protein 1 (Homo sapiens) (Q99814 whole entry, the tested form may be a part): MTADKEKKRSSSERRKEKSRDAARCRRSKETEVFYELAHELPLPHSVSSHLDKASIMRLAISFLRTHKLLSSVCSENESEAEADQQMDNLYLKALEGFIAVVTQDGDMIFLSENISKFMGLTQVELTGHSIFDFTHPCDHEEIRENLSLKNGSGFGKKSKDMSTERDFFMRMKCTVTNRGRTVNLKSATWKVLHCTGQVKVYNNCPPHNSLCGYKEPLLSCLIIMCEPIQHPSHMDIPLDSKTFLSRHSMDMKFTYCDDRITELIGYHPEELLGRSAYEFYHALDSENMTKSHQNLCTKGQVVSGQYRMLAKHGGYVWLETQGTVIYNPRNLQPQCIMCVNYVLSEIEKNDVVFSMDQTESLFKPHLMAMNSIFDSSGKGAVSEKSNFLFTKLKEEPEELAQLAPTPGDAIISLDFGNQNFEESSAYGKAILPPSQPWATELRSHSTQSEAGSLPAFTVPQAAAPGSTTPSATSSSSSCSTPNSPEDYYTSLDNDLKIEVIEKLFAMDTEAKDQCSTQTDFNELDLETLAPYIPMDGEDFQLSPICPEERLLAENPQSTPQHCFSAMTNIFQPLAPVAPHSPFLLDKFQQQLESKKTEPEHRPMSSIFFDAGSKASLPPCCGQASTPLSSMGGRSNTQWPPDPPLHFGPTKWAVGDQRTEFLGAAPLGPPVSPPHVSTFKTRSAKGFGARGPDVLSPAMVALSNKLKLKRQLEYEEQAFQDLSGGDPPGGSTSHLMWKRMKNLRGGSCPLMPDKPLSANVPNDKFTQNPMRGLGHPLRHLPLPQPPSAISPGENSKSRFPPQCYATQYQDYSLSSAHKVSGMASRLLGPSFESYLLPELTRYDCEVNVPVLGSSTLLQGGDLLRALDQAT
Sequence of Hypoxia-inducible factor 1-alpha (Homo sapiens) (Q16665 whole entry, looked up): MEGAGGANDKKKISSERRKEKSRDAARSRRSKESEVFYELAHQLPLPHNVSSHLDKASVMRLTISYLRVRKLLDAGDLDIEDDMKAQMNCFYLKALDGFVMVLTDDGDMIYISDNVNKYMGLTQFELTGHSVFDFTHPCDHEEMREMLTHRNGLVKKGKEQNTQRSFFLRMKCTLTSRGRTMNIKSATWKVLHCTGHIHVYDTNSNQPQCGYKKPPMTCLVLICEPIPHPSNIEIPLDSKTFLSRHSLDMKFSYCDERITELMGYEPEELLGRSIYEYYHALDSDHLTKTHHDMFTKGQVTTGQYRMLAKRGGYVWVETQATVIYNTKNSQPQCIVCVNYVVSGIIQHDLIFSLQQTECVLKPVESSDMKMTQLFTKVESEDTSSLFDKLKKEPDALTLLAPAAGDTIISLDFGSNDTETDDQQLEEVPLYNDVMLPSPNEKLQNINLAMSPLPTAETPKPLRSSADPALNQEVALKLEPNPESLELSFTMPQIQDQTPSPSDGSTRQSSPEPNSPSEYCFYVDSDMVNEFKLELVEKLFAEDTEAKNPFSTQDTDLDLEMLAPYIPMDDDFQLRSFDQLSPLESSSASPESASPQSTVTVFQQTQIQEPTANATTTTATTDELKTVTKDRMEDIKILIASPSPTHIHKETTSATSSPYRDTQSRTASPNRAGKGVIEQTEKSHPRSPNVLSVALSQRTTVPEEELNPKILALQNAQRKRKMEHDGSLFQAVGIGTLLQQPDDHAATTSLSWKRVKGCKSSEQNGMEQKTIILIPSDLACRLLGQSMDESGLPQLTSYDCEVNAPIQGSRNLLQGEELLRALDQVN

SMILES | IC50 (Egl nine homolog 1) [nM] | microsomal CLint at 1 µM [1] [µL/min/mg] | Activity [2] | Activity (Mus musculus) | Activity [3] | Activity (Erythrocyte)
O=C(O)CNC(=O)c1ncc(C2CCN(S(=O)(=O)Cc3ccc(C(F)(F)F)cc3)CC2)cc1O | 98.9 | 5 | – | – | – | –
Cc1nc(C(=O)NCC(=O)O)c(O)c2ccc(Oc3ccccc3)cc12 | – | – | Active | Active | Active | Dose-Dependent Effect
Cc1ccc(C(=O)N2CCC(c3cnc(C(=O)NCC(=O)O)c(O)c3)CC2)cc1 | 34.6 | – | – | – | – | –
O=C(O)CNC(=O)c1ncc(-c2cccc(Cl)c2)cc1O | – | – | – | Active | – | Dose-Dependent Effect

From ChEMBL document CHEMBL5331121, “Preferred Conformation-Guided Discovery of Potent and Orally Active HIF Prolyl Hydroxylase 2 Inhibitors for the Treatment of Anemia” (J Med Chem, 2023)
